Columns and labels:
[1] = test system: Adrenergic receptor alpha-2 (Cavia porcellus); settings: Cardiac atrium
[2] = molecular target: T1, Adrenergic receptor alpha-2 (Homo sapiens, UniProt P08913+P18825+P18089); format: cell membranes
T1 sequence (P08913 whole entry): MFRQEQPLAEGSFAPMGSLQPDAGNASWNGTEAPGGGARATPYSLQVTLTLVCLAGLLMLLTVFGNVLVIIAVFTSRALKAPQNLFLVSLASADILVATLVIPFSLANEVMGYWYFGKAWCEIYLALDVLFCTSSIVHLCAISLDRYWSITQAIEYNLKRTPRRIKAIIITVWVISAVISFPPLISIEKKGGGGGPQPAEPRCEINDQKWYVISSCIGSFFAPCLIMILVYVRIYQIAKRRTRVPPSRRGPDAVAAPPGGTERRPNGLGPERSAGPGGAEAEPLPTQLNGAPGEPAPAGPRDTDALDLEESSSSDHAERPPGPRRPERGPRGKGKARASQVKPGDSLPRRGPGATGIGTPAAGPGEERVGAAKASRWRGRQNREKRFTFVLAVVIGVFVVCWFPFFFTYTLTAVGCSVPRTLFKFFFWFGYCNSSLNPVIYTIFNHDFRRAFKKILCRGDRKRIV
T1 sequence (P18825 whole entry): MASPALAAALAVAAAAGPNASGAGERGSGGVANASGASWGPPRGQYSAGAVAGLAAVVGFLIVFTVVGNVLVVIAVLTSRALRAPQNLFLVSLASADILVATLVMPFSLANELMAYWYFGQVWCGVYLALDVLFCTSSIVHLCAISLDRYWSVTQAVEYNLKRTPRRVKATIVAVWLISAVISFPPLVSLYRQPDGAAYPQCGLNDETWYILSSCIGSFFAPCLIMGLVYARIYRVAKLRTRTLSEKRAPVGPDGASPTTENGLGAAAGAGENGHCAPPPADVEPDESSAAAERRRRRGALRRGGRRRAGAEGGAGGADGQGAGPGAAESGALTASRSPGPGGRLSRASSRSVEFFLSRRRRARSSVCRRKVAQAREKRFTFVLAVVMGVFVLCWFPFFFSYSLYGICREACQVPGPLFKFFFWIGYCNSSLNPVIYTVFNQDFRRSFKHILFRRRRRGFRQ
T1 sequence (P18089 whole entry): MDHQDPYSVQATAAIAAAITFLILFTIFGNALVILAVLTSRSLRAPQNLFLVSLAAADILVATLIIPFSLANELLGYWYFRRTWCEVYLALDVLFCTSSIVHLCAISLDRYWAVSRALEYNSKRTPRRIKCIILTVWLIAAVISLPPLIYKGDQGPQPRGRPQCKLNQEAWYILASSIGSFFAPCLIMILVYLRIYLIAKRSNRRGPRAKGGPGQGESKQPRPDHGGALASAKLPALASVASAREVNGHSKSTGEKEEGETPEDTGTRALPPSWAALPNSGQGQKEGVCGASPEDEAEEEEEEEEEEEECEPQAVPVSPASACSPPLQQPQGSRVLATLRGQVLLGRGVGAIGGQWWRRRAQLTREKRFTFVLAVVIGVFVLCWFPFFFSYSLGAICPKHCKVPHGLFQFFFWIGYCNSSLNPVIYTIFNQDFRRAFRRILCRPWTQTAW

[3] = molecular target: T1, Adrenergic receptor alpha-2; assay: Binding affinity against alpha-2-adrenergic receptor using 10 nM [3H]yohimbine in preparations in human platelet membranes from three separate experiments using 10 inhibitor concentrations; format: cell membranes
[4] = molecular target: T1, Adrenergic receptor alpha-2; assay: Binding affinity against alpha-2-adrenergic receptor using 10 nM [3H]yohimbine in human platelet membranes from four to five separate experiments using 12 inhibitor concentrations; format: cell membranes

SMILES: C=CCOc1cccc2c1CCN(C)CC2
- K beta [1]: 206 nM
- Ki [2]: 338 nM

SMILES: C=CCOc1ccc2c(c1)CCNCC2
- Ki [3]: 232 nM

SMILES: C=CCN1CCc2cccc(Cl)c2CC1
- K beta [1]: 60 nM
- Ki [2]: 6.1 nM

SMILES: C=CCOc1ccc(Cl)c2c1CCN(C)CC2
- Ki [4]: 48 nM
- K beta [1]: 150 nM
